Measured values published in ChEMBL document CHEMBL4828722, “The synthesis and bioactivity of pyrrolo[2,3-d]pyrimidine derivatives as tyrosine kinase inhibitors for NSCLC cells with EGFR mutations” (Eur J Med Chem, 2021).
pIC50: −log10 of the molar value. Active and inactive are the calls of the source. The rule behind the calls is not given here.

What was measured:
[1] = Cytotoxicity against human HBE cells assessed as reduction in cell viability measured after 48 hrs by CCK8 assay; format: cell-based
[2] = tested on: NCI-H1975; assay: Cytotoxicity against human NCI-H1975 cells harboring EGFR L858R/T790M mutant assessed as reduction in cell viability measured after 48 hrs by CCK8 assay; format: functional, cell-based; conditions: NCI-H1975, 48 h
[3] = tested on: HCC827; assay: Potency index, ratio of avitinib IC50 to test compound IC50 for cytotoxicity against human HCC827 cells harboring EGFR del E746-A750 mutant assessed as reduction in cell viability measured after 48 hrs by CCK8 assay; format: functional
[4] = Selectivity index, ratio of IC50 for cytotoxicity against human NCI-H460 cells harboring wild type EGFR to IC50 for cytotoxicity against human HCC827 cells harboring EGFR del E746-A750 mutant assessed as reduction in cell viability measured after 48 hrs by CCK8 assay
[5] = molecular target: T1, Epidermal growth factor receptor (Homo sapiens, UniProt P00533); assay: Inhibition of wild type EGFR (unknown origin) at 80 nM pretreated with substrate for 10 mins followed by ATP addition measured after 60 mins by mobility shift assay relative to control
[6] = tested on: Epidermal growth factor receptor (Homo sapiens), P00533 [L858R,T790M]; assay: Inhibition of […] EGFR L858R/T790M mutant (unknown origin) at 2 nM pretreated with substrate for 10 mins followed by ATP addition measured after 60 mins by mobility shift assay relative to control
[7] = tested on: Epidermal growth factor receptor (Homo sapiens), P00533 [UNDEFINED MUTATION]; assay: Inhibition of […] EGFR Del E746/A750 mutant (unknown origin) at 2 nM pretreated with substrate for 10 mins followed by ATP addition measured after 60 mins by mobility shift assay relative to control
[8] = tested on: Epidermal growth factor receptor (Homo sapiens), P00533 [L858R]; assay: Inhibition of […] EGFR L858R mutant (unknown origin) at 2 nM pretreated with substrate for 10 mins followed by ATP addition measured after 60 mins by mobility shift assay relative to control
[9] = tested on: Epidermal growth factor receptor (Homo sapiens), P00533 [T790M]; assay: Inhibition of […] EGFR T790M mutant (unknown origin) at 2 nM pretreated with substrate for 10 mins followed by ATP addition measured after 60 mins by mobility shift assay relative to control
[10] = tested on: Epidermal growth factor receptor (Homo sapiens), P00533 [C797S]; assay: Inhibition of […] EGFR C797S mutant (unknown origin) at 2 nM pretreated with substrate for 10 mins followed by ATP addition measured after 60 mins by mobility shift assay relative to control
[11] = tested on: Epidermal growth factor receptor (Homo sapiens), P00533 [L858R,T790M,C797S]; assay: Inhibition of […] EGFR L858R/T790M/C797S mutant (unknown origin) at 2 nM pretreated with substrate for 10 mins followed by ATP addition measured after 60 mins by mobility shift assay relative to control
[12] = molecular target: T1, Epidermal growth factor receptor; assay: Inhibition of wild type EGFR (unknown origin) pretreated with substrate for 10 mins followed by ATP addition measured after 60 mins by mobility shift assay
[13] = molecular target: Epidermal growth factor receptor (Homo sapiens, UniProt P00533, L858R/T790M); assay: Inhibition of […] EGFR L858R/T790M mutant (unknown origin) pretreated with substrate for 10 mins followed by ATP addition measured after 60 mins by mobility shift assay
[14] = molecular target: Epidermal growth factor receptor (Homo sapiens, UniProt P00533, DELE746); assay: Inhibition of […] EGFR Del E746/A750 mutant (unknown origin) pretreated with substrate for 10 mins followed by ATP addition measured after 60 mins by mobility shift assay
[15] = molecular target: Epidermal growth factor receptor (Homo sapiens, UniProt P00533, L858R); assay: Inhibition of […] EGFR L858R mutant (unknown origin) pretreated with substrate for 10 mins followed by ATP addition measured after 60 mins by mobility shift assay
[16] = molecular target: Epidermal growth factor receptor (Homo sapiens, UniProt P00533, T790M); assay: Inhibition of […] EGFR T790M mutant (unknown origin) pretreated with substrate for 10 mins followed by ATP addition measured after 60 mins by mobility shift assay
[17] = molecular target: Epidermal growth factor receptor (Homo sapiens, UniProt P00533, C797S); assay: Inhibition of […] EGFR C797S mutant (unknown origin) pretreated with substrate for 10 mins followed by ATP addition measured after 60 mins by mobility shift assay
[18] = molecular target: Epidermal growth factor receptor (Homo sapiens, UniProt P00533, C797S/L858R/T790M); assay: Inhibition of […] EGFR L858R/T790M/C797S mutant (unknown origin) pretreated with substrate for 10 mins followed by ATP addition measured after 60 mins by mobility shift assay
[19] = tested on: NCI-H1975; assay: Induction of cell cycle arrest in human NCI-H1975 cells harboring EGFR L858R/T790M mutant assessed as accumulation of cells in G0/G1 phase at 1 uM measured after 18 hrs by PI/RNaseA staining based flow cytometry analysis (Rvb= 42.69%); format: functional
[20] = tested on: NCI-H1975; assay: Induction of apoptosis in human NCI-H1975 cells harboring EGFR L858R/T790M mutant assessed as late apoptotic cells at 0.5 uM measured after 18 hrs by Annexin V-FITC/PI staining based flow cytometry analysis (Rvb= 0.1%); format: functional
[21] = tested on: HCC827; assay: Induction of apoptosis in human HCC827 cells harboring EGFR del E746-A750 mutant assessed as dead cells at 0.5 uM measured after 18 hrs by Annexin V-FITC/PI staining based flow cytometry analysis (Rvb= […]); format: functional
[22] = molecular target: T1, Epidermal growth factor receptor; assay: Inhibition of wild type EGFR phosphorylation at Tyr992 residue in human HBE cells up to 5 uM incubated for 2 hrs by immunoblotting analysis; format: cell-based; conditions: dose microM <=5, time 2.0 hrs
[23] = molecular target: T1, Epidermal growth factor receptor; assay: Inhibition of wild type EGFR phosphorylation at Tyr1068 residue in human HBE cells up to 5 uM incubated for 2 hrs by immunoblotting analysis; format: cell-based; conditions: dose microM <=5, time 2.0 hrs
[24] = molecular target: Mitogen-activated protein kinase; ERK1/ERK2 (Homo sapiens) (UniProt P27361+P28482); assay: Inhibition of ERK1/2 phosphorylation at Thr202/Tyr204 residue in human HBE cells at 5 uM incubated for 2 hrs by immunoblotting analysis; format: cell-based
[25] = molecular target: T1, Epidermal growth factor receptor; assay: Inhibition of […] EGFR phosphorylation at Tyr992 residue in human NCI-H1975 cells at 0.1 to 5 uM incubated for 2 hrs by immunoblotting analysis; format: cell-based; conditions: dose 0.1-5 µM
[26] = molecular target: T1, Epidermal growth factor receptor; assay: Inhibition of […] EGFR phosphorylation at Tyr1068 residue in human NCI-H1975 cells at 0.1 to 5 uM incubated for 2 hrs by immunoblotting analysis; format: cell-based; conditions: dose 0.1-5 µM
[27] = molecular target: T1, Epidermal growth factor receptor; assay: Inhibition of […] EGFR phosphorylation at Tyr992 residue in human HCC827 cells at 0.1 to 5 uM incubated for 2 hrs by immunoblotting analysis; format: cell-based; conditions: dose 0.1-5 µM
[28] = molecular target: T1, Epidermal growth factor receptor; assay: Inhibition of […] EGFR phosphorylation at Tyr1068 residue in human HCC827 cells at 0.1 to 5 uM incubated for 2 hrs by immunoblotting analysis; format: cell-based; conditions: dose 0.1-5 µM

T1 sequence (P00533 whole entry): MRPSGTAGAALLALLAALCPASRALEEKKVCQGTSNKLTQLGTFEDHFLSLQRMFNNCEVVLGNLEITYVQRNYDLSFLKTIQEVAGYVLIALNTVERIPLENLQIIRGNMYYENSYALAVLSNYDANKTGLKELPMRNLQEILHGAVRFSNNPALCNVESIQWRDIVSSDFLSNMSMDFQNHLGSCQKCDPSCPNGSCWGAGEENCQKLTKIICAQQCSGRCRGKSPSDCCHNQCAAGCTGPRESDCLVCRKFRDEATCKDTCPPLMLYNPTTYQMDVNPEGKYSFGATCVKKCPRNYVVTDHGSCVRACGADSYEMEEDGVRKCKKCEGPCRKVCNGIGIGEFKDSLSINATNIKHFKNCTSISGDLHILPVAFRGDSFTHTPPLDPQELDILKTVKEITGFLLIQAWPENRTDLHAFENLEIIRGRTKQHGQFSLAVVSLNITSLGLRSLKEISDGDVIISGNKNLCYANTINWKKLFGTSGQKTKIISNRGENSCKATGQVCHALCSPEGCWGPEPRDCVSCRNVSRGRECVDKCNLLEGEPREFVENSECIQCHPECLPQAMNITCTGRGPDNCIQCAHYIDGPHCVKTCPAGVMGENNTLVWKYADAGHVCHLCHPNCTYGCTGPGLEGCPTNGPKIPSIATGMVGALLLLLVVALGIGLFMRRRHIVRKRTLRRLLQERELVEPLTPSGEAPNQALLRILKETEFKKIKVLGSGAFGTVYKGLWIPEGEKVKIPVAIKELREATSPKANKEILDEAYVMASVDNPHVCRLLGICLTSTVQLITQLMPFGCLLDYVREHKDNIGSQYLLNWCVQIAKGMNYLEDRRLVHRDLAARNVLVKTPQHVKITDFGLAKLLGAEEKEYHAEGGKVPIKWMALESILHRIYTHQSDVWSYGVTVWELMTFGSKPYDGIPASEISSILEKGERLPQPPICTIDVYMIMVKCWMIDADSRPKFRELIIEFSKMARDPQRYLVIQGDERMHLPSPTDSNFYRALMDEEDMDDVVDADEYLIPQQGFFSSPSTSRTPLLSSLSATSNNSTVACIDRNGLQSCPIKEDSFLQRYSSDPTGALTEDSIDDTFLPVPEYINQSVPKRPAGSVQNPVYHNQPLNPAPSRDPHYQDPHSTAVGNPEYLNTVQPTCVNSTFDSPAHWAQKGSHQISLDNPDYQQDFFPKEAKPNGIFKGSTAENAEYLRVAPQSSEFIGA
Mitogen-activated protein kinase; ERK1/ERK2 (Homo sapiens), sequence (P27361 whole entry, looked up): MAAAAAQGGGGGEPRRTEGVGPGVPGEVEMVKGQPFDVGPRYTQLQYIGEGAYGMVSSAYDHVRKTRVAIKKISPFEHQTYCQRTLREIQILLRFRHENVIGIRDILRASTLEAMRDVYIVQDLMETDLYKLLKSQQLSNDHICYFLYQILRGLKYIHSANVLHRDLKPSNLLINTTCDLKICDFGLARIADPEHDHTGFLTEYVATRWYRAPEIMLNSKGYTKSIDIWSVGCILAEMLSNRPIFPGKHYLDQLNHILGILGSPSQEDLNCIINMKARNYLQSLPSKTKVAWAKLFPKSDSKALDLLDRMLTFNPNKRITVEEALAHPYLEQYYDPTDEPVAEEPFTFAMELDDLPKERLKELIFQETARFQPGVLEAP
Mitogen-activated protein kinase; ERK1/ERK2 (Homo sapiens), sequence (P28482 whole entry, looked up): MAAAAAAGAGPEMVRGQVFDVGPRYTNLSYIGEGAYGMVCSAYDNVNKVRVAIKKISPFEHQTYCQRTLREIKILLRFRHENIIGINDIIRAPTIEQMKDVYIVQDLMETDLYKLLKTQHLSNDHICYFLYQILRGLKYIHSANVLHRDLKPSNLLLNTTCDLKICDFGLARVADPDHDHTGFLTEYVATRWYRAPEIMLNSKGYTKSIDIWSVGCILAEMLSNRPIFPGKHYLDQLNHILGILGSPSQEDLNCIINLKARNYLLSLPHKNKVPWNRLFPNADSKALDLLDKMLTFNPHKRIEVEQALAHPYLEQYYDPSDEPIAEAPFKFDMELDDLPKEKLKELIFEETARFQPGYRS
Epidermal growth factor receptor (Homo sapiens), P00533 [L858R], sequence (P00533 whole entry L858R): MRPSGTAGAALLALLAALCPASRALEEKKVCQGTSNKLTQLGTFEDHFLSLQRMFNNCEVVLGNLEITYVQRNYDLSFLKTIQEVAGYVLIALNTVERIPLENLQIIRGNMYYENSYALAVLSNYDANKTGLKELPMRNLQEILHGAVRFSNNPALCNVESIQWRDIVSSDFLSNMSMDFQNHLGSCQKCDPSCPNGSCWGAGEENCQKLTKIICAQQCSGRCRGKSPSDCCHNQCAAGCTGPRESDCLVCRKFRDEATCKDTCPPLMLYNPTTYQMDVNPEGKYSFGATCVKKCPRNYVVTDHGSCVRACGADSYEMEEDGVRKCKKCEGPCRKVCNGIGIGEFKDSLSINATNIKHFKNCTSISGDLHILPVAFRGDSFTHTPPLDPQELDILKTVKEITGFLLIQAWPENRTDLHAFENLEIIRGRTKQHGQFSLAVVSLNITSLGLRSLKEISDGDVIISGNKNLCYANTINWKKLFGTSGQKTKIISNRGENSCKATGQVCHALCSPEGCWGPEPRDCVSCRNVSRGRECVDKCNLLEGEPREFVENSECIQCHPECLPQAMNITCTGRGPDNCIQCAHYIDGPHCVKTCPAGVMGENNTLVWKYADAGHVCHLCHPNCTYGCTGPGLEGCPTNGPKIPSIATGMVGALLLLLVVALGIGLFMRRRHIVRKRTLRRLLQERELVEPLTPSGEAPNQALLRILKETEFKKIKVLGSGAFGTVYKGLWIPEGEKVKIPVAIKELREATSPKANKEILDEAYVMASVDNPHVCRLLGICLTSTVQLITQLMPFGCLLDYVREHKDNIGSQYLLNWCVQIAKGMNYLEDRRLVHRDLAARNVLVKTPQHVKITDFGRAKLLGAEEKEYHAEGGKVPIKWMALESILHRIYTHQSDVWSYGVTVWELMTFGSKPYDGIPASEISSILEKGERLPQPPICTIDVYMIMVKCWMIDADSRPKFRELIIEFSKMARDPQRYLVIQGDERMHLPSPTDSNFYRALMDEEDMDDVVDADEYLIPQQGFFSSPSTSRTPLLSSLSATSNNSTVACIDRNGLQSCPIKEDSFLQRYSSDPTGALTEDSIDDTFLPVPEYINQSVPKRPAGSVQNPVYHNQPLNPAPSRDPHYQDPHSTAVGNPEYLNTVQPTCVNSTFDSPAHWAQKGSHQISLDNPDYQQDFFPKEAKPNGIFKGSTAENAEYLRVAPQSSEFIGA
Epidermal growth factor receptor (Homo sapiens, UniProt P00533, L858R), sequence (P00533 25-1210 L858R limits assumed): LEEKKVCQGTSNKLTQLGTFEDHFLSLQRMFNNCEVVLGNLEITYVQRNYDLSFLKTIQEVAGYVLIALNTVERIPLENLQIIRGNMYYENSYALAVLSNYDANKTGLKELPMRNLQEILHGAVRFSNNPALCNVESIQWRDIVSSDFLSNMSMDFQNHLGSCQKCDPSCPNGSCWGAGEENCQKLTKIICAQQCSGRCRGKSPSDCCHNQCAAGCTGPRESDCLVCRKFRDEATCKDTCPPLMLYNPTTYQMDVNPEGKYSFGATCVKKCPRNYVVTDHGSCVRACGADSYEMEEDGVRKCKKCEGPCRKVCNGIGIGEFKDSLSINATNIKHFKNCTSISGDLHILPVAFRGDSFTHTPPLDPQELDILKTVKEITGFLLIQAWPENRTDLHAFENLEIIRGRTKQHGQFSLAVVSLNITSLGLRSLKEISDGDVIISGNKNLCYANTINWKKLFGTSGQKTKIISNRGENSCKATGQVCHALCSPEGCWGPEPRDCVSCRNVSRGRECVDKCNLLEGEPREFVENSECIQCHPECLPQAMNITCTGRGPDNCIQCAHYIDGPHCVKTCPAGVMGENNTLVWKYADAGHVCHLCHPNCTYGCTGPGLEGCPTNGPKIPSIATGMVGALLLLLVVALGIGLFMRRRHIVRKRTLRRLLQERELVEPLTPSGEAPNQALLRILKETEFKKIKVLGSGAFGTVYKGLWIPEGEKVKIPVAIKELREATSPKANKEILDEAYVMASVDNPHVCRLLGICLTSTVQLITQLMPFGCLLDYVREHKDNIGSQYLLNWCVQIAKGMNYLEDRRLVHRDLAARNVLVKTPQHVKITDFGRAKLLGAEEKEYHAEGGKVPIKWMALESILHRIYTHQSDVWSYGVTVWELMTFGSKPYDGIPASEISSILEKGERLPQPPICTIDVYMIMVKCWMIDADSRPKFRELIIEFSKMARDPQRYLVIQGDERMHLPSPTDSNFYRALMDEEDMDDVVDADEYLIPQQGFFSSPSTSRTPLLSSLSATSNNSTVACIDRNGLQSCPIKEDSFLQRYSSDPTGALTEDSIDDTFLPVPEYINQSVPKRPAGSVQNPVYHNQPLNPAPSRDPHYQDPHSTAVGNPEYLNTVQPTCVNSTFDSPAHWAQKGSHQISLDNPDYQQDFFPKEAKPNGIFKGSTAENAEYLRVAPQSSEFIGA

Row | Structure (SMILES) | pIC50 [1] | pIC50 [2] | inhibition [5] [%] | inhibition [6] [%] | inhibition [7] [%] | inhibition [8] [%] | inhibition [9] [%] | inhibition [10] [%] | inhibition [11] [%] | pIC50 [12] | pIC50 [13] | pIC50 [14] | pIC50 [15] | pIC50 [16] | pIC50 [17] | pIC50 [18] | Activity [19] [%] | Activity [20] [%] | Activity [21] [%] | inhibition [24] | further results
1 | C=CC(=O)Nc1cccc(Oc2nc(Nc3ccc(N4CCN(C)CC4)c(N)c3)nc3[nH]ccc23)c1 | 4.64 | 5.42 | 63 | 85 | 63 | 40 | 96 | 16 | 8 | 7.66 | 8.66 | 8.70 | 9.68 | < 5.00 | 9.12 | 6.92 | 69.17 | 0.3 | 2.1 | Active | Ratio IC50 [3]: 2; Selectivity Index [4]: 579.7; inhibition [22]: inactive; inhibition [23]: inactive; inhibition [25]: Active; inhibition [26]: Active; inhibition [27]: Active; inhibition [28]: Active
2 | C=CC(=O)Nc1cccc(Oc2nc(Nc3ccc(N4CCN(C)CC4)c([N+](=O)[O-])c3)nc3[nH]ccc23)c1 | 5.12 | 5.51 | 37 | 49 | 23 | 19 | 91 | 3.7 | 5.8 | 6.95 | 8.14 | 8.00 | 9.41 | < 5.00 | 8.92 | 6.08 | 72.08 | 0.3 | 1.4 | Active | inhibition [22]: inactive; inhibition [23]: inactive; inhibition [25]: Active; inhibition [26]: Active; inhibition [27]: Active; inhibition [28]: Active
3 | C=CC(=O)Nc1cccc(Oc2nc(Nc3ccc(N4CCN(C)CC4)c(F)c3)nc3[nH]ccc23)c1 [ABIVERTINIB] |  |  |  |  |  |  |  |  |  |  |  |  |  |  |  |  |  | 1.2 |  | Active | 
